# Laboratory results published in US8106015B2, “Method for enhancing immune response with peptide” (Juridical Foundation The Chemo-Sero-Therapeutic Research …, priority 2007, dated 2012).
# Where “and” joins values, the source holds several entries; their conditions need not be identical. Equal entries are not always repeated.
# Assays:
# Format in all cases: in vivo, C57BL/6 mice
# anti-Aβ IgG antibody [1] = assay: Example 5: anti-Aβ IgG antibody titer, cysteine at the C-terminal, the N-terminal and both terminals; conditions: Day 7 from the final 4th immunization; for Antibody titer, Mean: group mean of 4 mice; for Antibody titer: individual animals (No. 1-4), 100 μg/mouse, 2-week intervals, no adjuvant
# anti-Aβ IgG antibody [2] = assay: Example 6: anti-Aβ IgG antibody titer, Aβ peptide sequences with insertion of cysteine; conditions: Day 7 from the final 4th immunization; for Antibody titer, Mean: group mean of 4 mice; for Antibody titer: individual animals (No. 1-4), 100 μg/mouse, 2-week intervals, no adjuvant
# anti-Aβ IgG antibody [3] = assay: Example 3: anti-Aβ IgG antibody titer, Aβ peptides with addition of cysteine of 26-40 amino acids in length; conditions: Day 7 from final 3rd immunization; for Antibody titer, Mean: group mean of 4 mice; for Antibody titer: individual animals (No. 1-4), 100 μg/mouse, 3 times at 2-week intervals, no adjuvant
# anti-Aβ IgG antibody [4] = assay: Example 10: anti-Aβ IgG antibody titer, Aβ peptide with/without cysteine, with and without adjuvant; conditions: Day 7 from final 3rd immunization
# anti-Aβ IgG antibody [5] = assay: Example 1: anti-Aβ IgG antibody titer in murine serum after immunization with Aβ peptides with and without addition of cysteine
# anti-Aβ IgG antibody [6] = assay: Example 7: anti-Aβ IgG antibody titer, Aβ peptide with cysteine plus exogenous amino acid sequence; conditions: Day 7 from the final 4th immunization; for Antibody titer, Mean: group mean of 4 mice; for Antibody titer: individual animals (No. 1-4), 100 μg/mouse, 2-week intervals, no adjuvant
# anti-Aβ IgG antibody [7] = assay: Example 4: anti-Aβ IgG antibody titer, Aβ peptides with 0, 1 or 2 molecules of cysteine added
# anti-Aβ IgG antibody [8] = assay: Example 2: anti-Aβ IgG antibody titer, Aβ peptide with cysteine vs carrier-linked Aβ peptide with/without adjuvant; conditions: Day 7 from final 3rd immunization
# [9] = group mean of 4 mice, serum, 100 μg/mouse intradermally or subcutaneously, 2-week intervals, no adjuvant
sequence,measurement,setting,value
"CDAEFRHDSGYEVHHQKLVFFAEDVGSNK [Cys28AA, Peptide with addition of 1 molecule of cysteine at the N-terminal]","Antibody titer, Mean",anti-Aβ IgG antibody [1],5891.8 ng/mL
same,Antibody titer,anti-Aβ IgG antibody [1]; listed as Cys2BAA,7708 ng/mL and 423 ng/mL and 15328 ng/mL and 108 ng/mL
"CDAEFRHDSGYEVHHQKLVFFAEDVGSNKC [Cys28AACys, Peptide with addition of each 1 molecule of cysteine at the C-terminal and the N-terminal]","Antibody titer, Mean",anti-Aβ IgG antibody [1],13051.6 ng/mL
same,Antibody titer,anti-Aβ IgG antibody [1],772 ng/mL and 49849 ng/mL and 1537 ng/mL and 48 ng/mL
"DAEFRHDCSGYEVHHQKLVFFAEDVGSNK [28AA7Cys, 28-amino acid Aβ peptide with insertion of cysteine after residue 7]","Antibody titer, Mean",anti-Aβ IgG antibody [2],23.0 ng/mL
same,Antibody titer,anti-Aβ IgG antibody [2],21 ng/mL and 24 ng/mL and 17 ng/mL and 30 ng/mL
"DAEFRHDSGYCEVHHQKLVFFAEDVGSNK [28AA10Cys, 28-amino acid Aβ peptide with insertion of cysteine after residue 10]","Antibody titer, Mean",anti-Aβ IgG antibody [2],17.7 ng/mL
same,Antibody titer,anti-Aβ IgG antibody [2],26 ng/mL and 19 ng/mL and 18 ng/mL and 8 ng/mL
"DAEFRHDSGYEVHHQKLVCFFAEDVGSNK [28AA18Cys, 28-amino acid Aβ peptide with insertion of cysteine between 18th-19th amino acid residues]",Antibody inducing ability,anti-Aβ IgG antibody [2],antibody inducing ability was found
same,Antibody inducing ability as compared to the group administered with 28AACys,anti-Aβ IgG antibody [2],higher antibody inducing ability
same,"Antibody titer, Mean",anti-Aβ IgG antibody [2],611899.2 ng/mL
same,Antibody titer,anti-Aβ IgG antibody [2],2163676 ng/mL and 92083 ng/mL and 54037 ng/mL and 137801 ng/mL
"DAEFRHDSGYEVHHQKLVFFAEDVGCSNK [28AA25Cys, Aβ peptide with insertion of cysteine between the 25th and 26th amino acid residues]",Antibody inducing ability,anti-Aβ IgG antibody [2],antibody inducing ability was found
same,"Antibody titer, Mean",anti-Aβ IgG antibody [2],6860.8 ng/mL
same,Antibody titer,anti-Aβ IgG antibody [2],14972 ng/mL and 4721 ng/mL and 4483 ng/mL and 3267 ng/mL
"DAEFRHDSGYEVHHQKLVFFAEDVGSC [26AACys, 26-amino acid Aβ peptide with addition of cysteine at the C-terminal]","Antibody titer, Mean",anti-Aβ IgG antibody [3],24.5 ng/mL
same,Antibody titer,anti-Aβ IgG antibody [3],39 ng/mL and 19 ng/mL (2×) and 21 ng/mL
"DAEFRHDSGYEVHHQKLVFFAEDVGSNC [27AACys, 27-amino acid Aβ peptide with addition of cysteine at the C-terminal]","Antibody titer, Mean",anti-Aβ IgG antibody [3],19.0 ng/mL
same,Antibody titer,anti-Aβ IgG antibody [3],15 ng/mL and 19 ng/mL (2×) and 24 ng/mL
"DAEFRHDSGYEVHHQKLVFFAEDVGSNKC [28AACys, 28-amino acid Aβ peptide with addition of cysteine]","Antibody titer, Mean",anti-Aβ IgG antibody [1],155867.0 ng/mL
same,Antibody titer,anti-Aβ IgG antibody [1],290461 ng/mL and 94 ng/mL and 139927 ng/mL and 192986 ng/mL
same,Antibody inducing ability against Aβ,anti-Aβ IgG antibody [3],higher antibody titer
same,"Antibody titer, Mean",anti-Aβ IgG antibody [3],51916.1 ng/mL
same,Antibody titer,anti-Aβ IgG antibody [3],3120 ng/mL and 2191 ng/mL and 115618 ng/mL and 86736 ng/mL
same,"Antibody titer, Mean",anti-Aβ IgG antibody [4]; group mean of 4 mice,19243.7 ng/mL
same,Antibody titer,"anti-Aβ IgG antibody [4]; individual animals (No. 1-4), 100 μg Aβ peptide per animal, 3 times at 2-week intervals",8847 ng/mL and 9458 ng/mL and 10446 ng/mL and 48224 ng/mL
same,Increase in the antibody titer with addition of cysteine,anti-Aβ IgG antibody [5]; compared to the same Aβ peptide fragment without addition of cysteine,about 39 fold
same,"Antibody titer, Day 7 from 2nd administration, Mean",anti-Aβ IgG antibody [5]; [9],157767.25 ng/mL
same,"Antibody titer, Day 7 from 3rd administration, Mean",anti-Aβ IgG antibody [5]; [9],26043.00 ng/mL
same,"Antibody titer, Day 7 from 2nd administration","anti-Aβ IgG antibody [5]; individual animals (No. 1-4), serum, 100 μg/mouse intradermally or subcutaneously, 2-week intervals, no adjuvant",74096.0 ng/mL and 30542.0 ng/mL and 389239.0 ng/mL and 137192.0 ng/mL
same,"Antibody titer, Day 7 from 3rd administration","anti-Aβ IgG antibody [5]; individual animals (No. 1-4), serum, 100 μg/mouse intradermally or subcutaneously, 3 times at 2-week intervals, no adjuvant",20265.0 ng/mL and 2337.0 ng/mL and 69198.0 ng/mL and 12372.0 ng/mL
same,Antibody inducing ability,anti-Aβ IgG antibody [6],antibody inducing ability was found
same,"Antibody titer, Mean",anti-Aβ IgG antibody [6],5070.2 ng/mL
same,Antibody titer,anti-Aβ IgG antibody [6],211 ng/mL and 365 ng/mL and 19578 ng/mL and 127 ng/mL
same,Antibody inducing ability,anti-Aβ IgG antibody [7]; 1 vs 2 molecules of cysteine at the C-terminal,almost the same antibody inducing ability
same,"Antibody titer, Mean","anti-Aβ IgG antibody [7]; group mean of 4 mice, Day 7 from the final 4th immunization",5070.2 ng/mL
same,Antibody titer,"anti-Aβ IgG antibody [7]; individual animals (No. 1-4), Day 7 from the final 4th immunization, 100 μg/mouse, 2-week intervals, no adjuvant",211 ng/mL and 365 ng/mL and 19578 ng/mL and 127 ng/mL
same,"Antibody titer, Mean",anti-Aβ IgG antibody [8]; group mean of 5 mice,4237.48 ng/mL
same,Antibody titer,"anti-Aβ IgG antibody [8]; individual animals (No. 1-5), primary 100 μg, 2nd and 3rd 50 μg per animal, 2-week intervals",1714.4 ng/mL and 5949.1 ng/mL and 10122.3 ng/mL and 716.6 ng/mL and 2685.0 ng/mL
same,Antibody inducing ability,anti-Aβ IgG antibody [2],antibody inducing ability was found
same,"Antibody titer, Mean",anti-Aβ IgG antibody [2],18946.0 ng/mL
same,Antibody titer,anti-Aβ IgG antibody [2],20883 ng/mL and 10503 ng/mL and 38907 ng/mL and 5491 ng/mL
DAEFRHDSGYEVHHQKLVFFAEDVGSNKCEIFEFTTD [Peptide with addition of cysteine at the C-terminal plus an exogenous peptide],Antibody inducing ability,anti-Aβ IgG antibody [6],antibody inducing ability was found
same,"Antibody titer, Mean",anti-Aβ IgG antibody [6],21099.2 ng/mL
same,Antibody titer,anti-Aβ IgG antibody [6],8196 ng/mL and 28782 ng/mL and 2162 ng/mL and 45257 ng/mL
"DAEFRHDSGYEVHHQKLVFFAEDVGSNKCGAIIG [33AA28Cys, Aβ peptide with insertion of cysteine between the 28th and 29th amino acid residues]",Antibody inducing ability,anti-Aβ IgG antibody [2],antibody inducing ability was found
same,"Antibody titer, Mean",anti-Aβ IgG antibody [2],4105.0 ng/mL
same,Antibody titer,anti-Aβ IgG antibody [2],245 ng/mL and 1932 ng/mL and 29 ng/mL and 14214 ng/mL
"DAEFRHDSGYEVHHQKLVFFAEDVGSNKCGAIIGLM [35AA28Cys, Aβ peptide with insertion of cysteine between the 28th and 29th amino acid residues]",Antibody inducing ability,anti-Aβ IgG antibody [2],antibody inducing ability was found
same,"Antibody titer, Mean",anti-Aβ IgG antibody [2],6897.5 ng/mL
same,Antibody titer,anti-Aβ IgG antibody [2],1753 ng/mL and 17265 ng/mL and 2103 ng/mL and 6469 ng/mL
"DAEFRHDSGYEVHHQKLVFFAEDVGSNKCTTD [28AACysTTD, Peptide with addition of cysteine at the C-terminal plus an exogenous peptide]",Antibody inducing ability,anti-Aβ IgG antibody [6],antibody inducing ability was found
same,"Antibody titer, Mean",anti-Aβ IgG antibody [6],28279.3 ng/mL
same,Antibody titer,anti-Aβ IgG antibody [6],46 ng/mL and 106899 ng/mL and 4316 ng/mL and 1855 ng/mL
